{
  "source": "patent US20240199546A1",
  "about": "“INHIBITORS OF SOLUTE CARRIER FAMILY 6A MEMBER 19 (SLC6A19) AND METHODS OF USE THEREOF” (Maze Therapeutics, Inc., priority 2022, published 2024)",
  "data": [
    {"target": "T1, human SLC6A19 and TMEM27 (Homo sapiens, UniProt Q695T7)", "T1 construct": "expressed in transfected cells", "T1 sequence (Q695T7 1-634)": "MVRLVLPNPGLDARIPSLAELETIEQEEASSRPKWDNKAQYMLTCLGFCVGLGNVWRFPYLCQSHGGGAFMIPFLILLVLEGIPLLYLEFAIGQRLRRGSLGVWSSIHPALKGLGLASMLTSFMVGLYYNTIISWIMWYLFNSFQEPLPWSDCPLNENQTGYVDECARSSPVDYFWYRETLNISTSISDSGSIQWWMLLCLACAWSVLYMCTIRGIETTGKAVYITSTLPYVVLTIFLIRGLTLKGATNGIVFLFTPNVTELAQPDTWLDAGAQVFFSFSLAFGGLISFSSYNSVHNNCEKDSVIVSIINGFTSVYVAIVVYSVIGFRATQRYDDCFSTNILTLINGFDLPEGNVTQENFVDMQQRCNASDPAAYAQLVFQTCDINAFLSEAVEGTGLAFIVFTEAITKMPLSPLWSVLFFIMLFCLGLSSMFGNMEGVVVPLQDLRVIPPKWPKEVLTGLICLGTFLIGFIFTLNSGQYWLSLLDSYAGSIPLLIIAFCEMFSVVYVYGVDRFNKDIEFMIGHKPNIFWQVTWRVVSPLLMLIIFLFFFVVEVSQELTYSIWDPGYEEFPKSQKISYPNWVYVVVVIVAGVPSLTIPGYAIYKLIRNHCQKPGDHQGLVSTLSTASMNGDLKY", "T1 sequence (Q9HBJ8 15-222 partner)": "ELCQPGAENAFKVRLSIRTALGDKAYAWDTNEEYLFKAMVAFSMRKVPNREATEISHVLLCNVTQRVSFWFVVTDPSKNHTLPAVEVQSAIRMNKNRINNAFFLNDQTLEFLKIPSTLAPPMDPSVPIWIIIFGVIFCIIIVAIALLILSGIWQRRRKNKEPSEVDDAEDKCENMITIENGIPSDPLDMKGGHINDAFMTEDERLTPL", "test": "Radiolabelled (3H) leucine uptake in CHO cells with doxycycline-inducible expression of human SLC6A19 and TMEM27 (Example B-1)", "type": "cell-based", "conditions": "CHO cells with doxycycline-inducible expression of human SLC6A19 and TMEM27, read-out: SLC6A19_Radioligand Uptake Assay IC50", "outline": "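CHO cells were induced with doxycycline for 18 h at 37 °C, washed in HBSS, then exposed to compounds for 1 h: 8-point, 3-fold dilutions in duplicate, 0.5% DMSO final. Uptake measured by scintillation counting after 2 h shaking. Activity normalized with positive control as 0% and DMSO as 100%.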", "units": {"IC50": "nM"}, "values": [
      {"molecule": "CC(=O)NCc1cc2cc(Cl)c(OC[C@@H]3CCCO3)cc2[nH]1", "note": "[Compound 466, (S)-N-((5-chloro-6-((tetrahydrofuran-2-yl)methoxy)-1H-indol-2-yl)methyl)acetamide]", "IC50": 2960},
      {"molecule": "CC1(C(=O)NCc2cc3cc(Cl)c(OCc4cc(F)ccn4)cc3[nH]2)CC1", "note": "[Compound 35, N-((5-chloro-6-((4-fluoropyridin-2-yl)methoxy)-1H-indol-2-yl)methyl)-1-methylcyclopropane-1-carboxamide]", "IC50": 902},
      {"molecule": "O=C(NCc1cc2cc(F)c(OCc3cocn3)cc2[nH]1)C1CC1", "note": "[Compound 428, N-((5-fluoro-6-(oxazol-4-ylmethoxy)-1H-indol-2-yl)methyl)cyclopropanecarboxamide]", "IC50": 161},
      {"molecule": "[2H]C([2H])(NC(C)=O)c1cc2cc(Cl)c(OCc3cc(C)no3)cc2[nH]1", "note": "[Compound 345, N-((5-chloro-6-((3-methylisoxazol-5-yl)methoxy)-1H-indol-2-yl)methyl-d2)acetamide]", "IC50": 62.7},
      {"molecule": "O=C(NCc1cc2cc(Cl)c(OCc3cscn3)cc2[nH]1)[C@H]1C[C@H]1F", "note": "[Compound 541, (1R,2R)-N-((5-chloro-6-(thiazol-4-ylmethoxy)-1H-indol-2-yl)methyl)-2-fluorocyclopropane-1-carboxamide]", "IC50": 141},
      {"molecule": "CC1(C(=O)NCc2cc3cc(Cl)c(COc4ccon4)cc3[nH]2)CC1", "note": "[Compound 613, N-((5-chloro-6-((isoxazol-3-yloxy)methyl)-1H-indol-2-yl)methyl)-1-methylcyclopropane-1-carboxamide]", "IC50": 82.4},
      {"molecule": "Cc1cc(COc2cc3[nH]c(CNC(=O)CO)cc3cc2Cl)on1", "note": "[Compound 242, N-((5-chloro-6-((3-methylisoxazol-5-yl)methoxy)-1H-indol-2-yl)methyl)-2-hydroxyacetamide]", "IC50": 674},
      {"molecule": "CC1(C(=O)NCc2cc3cc(Cl)c(CNc4ccccn4)cc3[nH]2)CC1", "note": "[Compound 609, N-((5-chloro-6-((pyridin-2-ylamino)methyl)-1H-indol-2-yl)methyl)-1-methylcyclopropane-1-carboxamide]", "IC50": 339},
      {"molecule": "CC1(C(=O)NCc2cc3cc(Cl)c(OCCc4cccnc4)cc3[nH]2)CC1", "note": "[Compound 331, N-((5-chloro-6-(2-(pyridin-3-yl)ethoxy)-1H-indol-2-yl)methyl)-1-methylcyclopropane-1-carboxamide]", "IC50": 452},
      {"molecule": "COC(C)C(=O)NCc1cc2cc(Cl)c(OCc3cscn3)cc2[nH]1", "note": "(stereo not drawn) [Compound 271, N-((5-chloro-6-(thiazol-4-ylmethoxy)-1H-indol-2-yl)methyl)-2-methoxypropanamide]", "IC50": 515},
      {"molecule": "CC1(C(=O)NCc2cc3cc(Cl)c(CCn4ncnn4)cc3[nH]2)CC1", "note": "[Compound 584, N-((6-(2-(2H-tetrazol-2-yl)ethyl)-5-chloro-1H-indol-2-yl)methyl)-1-methylcyclopropane-1-carboxamide]", "IC50": 889},
      {"molecule": "O=C(NCc1cc2cc(OC(F)(F)F)c(OCc3ccon3)cc2[nH]1)N1CCCC1", "note": "[Compound 420, N-((6-(isoxazol-3-ylmethoxy)-5-(trifluoromethoxy)-1H-indol-2-yl)methyl)pyrrolidine-1-carboxamide]", "IC50": 355},
      {"molecule": "O=C(NCc1cc2cc(C3CC3)c(OCc3cscn3)cc2[nH]1)N1CCCC1", "note": "[Compound 652, N-((5-cyclopropyl-6-(thiazol-4-ylmethoxy)-1H-indol-2-yl)methyl)pyrrolidine-1-carboxamide]", "IC50": 365},
      {"molecule": "C[C@H]1CCN(C(=O)NCc2cc3cc(F)c(OCc4cscn4)cc3[nH]2)C1", "note": "[Compound 388, (S)-N-((5-fluoro-6-(thiazol-4-ylmethoxy)-1H-indol-2-yl)methyl)-3-methylpyrrolidine-1-carboxamide]", "IC50": 336},
      {"molecule": "C[C@H]1CCCN1C(=O)NCc1cc2cc(F)c(OCc3ccon3)cc2[nH]1", "note": "[Compound 384, (S)-N-((5-fluoro-6-(isoxazol-3-ylmethoxy)-1H-indol-2-yl)methyl)-2-methylpyrrolidine-1-carboxamide]", "IC50": 1570}
    ]}
  ]
}
